Read-outs that look alike come from different tables or passages of the source.
Columns and labels:
[1] = molecular target: T1, glucosylceramide synthase (Homo sapiens, UniProt Q16739); assay: microsomal assay measuring conversion of ceramide to glucosylceramide by HPLC (GCS IC50); format: biochemical; conditions: concentration causing 50% inhibition of glucosylceramide synthase activity
T1 construct: Microsomes were isolated from A375 human melanoma cells; endogenous in cells; host or cells: A375 human melanoma cells (microsomal fraction, 100,000 g pellet)
T1 sequence (Q16739 1-394): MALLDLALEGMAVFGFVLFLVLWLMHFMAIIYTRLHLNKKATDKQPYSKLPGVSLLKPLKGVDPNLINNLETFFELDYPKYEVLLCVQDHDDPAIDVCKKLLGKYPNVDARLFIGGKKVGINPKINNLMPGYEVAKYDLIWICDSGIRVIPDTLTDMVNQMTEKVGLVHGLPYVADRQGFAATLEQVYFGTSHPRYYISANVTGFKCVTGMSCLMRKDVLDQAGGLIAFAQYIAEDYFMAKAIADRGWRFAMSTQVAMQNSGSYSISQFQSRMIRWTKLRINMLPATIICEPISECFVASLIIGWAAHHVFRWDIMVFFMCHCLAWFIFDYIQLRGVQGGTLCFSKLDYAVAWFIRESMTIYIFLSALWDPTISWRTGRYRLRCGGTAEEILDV
Procedure, shortened: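 IC50 is the compound concentration halving glucosylceramide synthase activity. Activity was measured in microsomes, with HPLC quantifying glucosylceramide formed from ceramide.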

[2] = tested on: GM3 expression on the cell surface, B16 mouse melanoma cells; assay: cell based phenotypic assay, cell surface GM3 by antibody mediated immunofluorescence, B16 (GM3 B16 IC50); conditions: Mus musculus, 50% inhibition of GM3 expression on the cell surface
Procedure, shortened: (§1)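 B16 mouse and C32 human melanoma cells; cell-surface GM3 measured by antibody-mediated immunofluorescence, giving IC50.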

[3] = tested on: GM3 expression on the cell surface, C32 human melanoma cells; assay: cell based phenotypic assay, cell surface GM3 by antibody mediated immunofluorescence, C32 (GM3 C32 IC50); conditions: Homo sapiens, 50% inhibition of GM3 expression on the cell surface
Procedure, shortened: as §1

B16 mouse melanoma cells = assay: cell viability in the B16 cell-based assay (Viability, B16 IC50); conditions: Mus musculus
Procedure, shortened: (§2)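 Viability readouts were run alongside the GM3 cell-surface assay in the same B16 and C32 cultures. A figure above 10 indicates no cell death.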

C32 human melanoma cells = assay: cell viability in the C32 cell-based assay (Viability, C32 IC50); conditions: Homo sapiens, concentration causing 50% cell death, values greater than 10 represent a lack of cell death
Procedure, shortened: as §2

[4] = B16 mouse melanoma cells, read-out: GM3 B16 IC50
[5] = C32 human melanoma cells, read-out: GM3 C32 IC50
[6] = B16, B16 cells, concentration causing 50% cell death, values greater than 10 represent a lack of cell death, read-out: Viability, B16 IC50
[7] = C32, C32 cells, read-out: Viability, C32 IC50
[8] = read-out: GM3 B16 IC50, B16 mouse melanoma cells
[9] = read-out: GM3 C32 IC50, C32 human melanoma cells
[10] = B16, read-out: Viability, B16 IC50
[11] = C32, read-out: Viability, C32 IC50, C32 cells

| Compound | IC50 [1] [nM] | IC50 [2, 4] [nM] | IC50 [3, 5] [nM] | IC50 (B16 mouse melanoma cells; [6]) [nM] | IC50 (C32 human melanoma cells; [7]) [nM] | IC50 [2, 8] [nM] | IC50 [3, 9] [nM] | IC50 (B16 mouse melanoma cells; [10]) [nM] | IC50 (C32 human melanoma cells; [11]) [nM] |
| --- | --- | --- | --- | --- | --- | --- | --- | --- | --- |
| COCCCOc1ccc(-c2ccnc(N3CCC(OC)(C(=O)NC4(C)CCN5CCC4CC5)CC3)n2)cc1 (centres unmarked) [Example 101, 4-Methoxy-1-(4-(4-(3-methoxypropoxy)phenyl)pyrimidin-2-yl)-N-(4-methyl-1-azabicyclo[3.2.2]nonan-4-yl)piperidine-4-carboxamide] | 3.38 | 78.5 | 0.436 | 2030 | 1000 |  |  |  |  |
| CC1(NC(=O)C2(F)CCN(c3ccc(Oc4ccc(F)cc4)nn3)CC2)CCN2CCC1CC2 (centres unmarked) [Example 134, 4-Fluoro-1-(6-(4-fluorophenoxy)pyridazin-3-yl)-N-(4-methyl-1-azabicyclo[3.2.2]nonan-4-yl)piperidine-4-carboxamide] | 14.5 | 343 | 2.83 | ≥ 10000 | 1000 |  |  |  |  |
| CC1(NC(=O)C2(F)CCN(c3ncc(Oc4ccc(F)cc4)cn3)CC2)CN2CCC1CC2 (centres unmarked) [Example 129, 4-Fluoro-1-(5-(4-fluorophenoxy)pyrimidin-2-yl)-N-(3-methylquinuclidin-3-yl)piperidine-4-carboxamide] | 4.27 | 97.8 | 0.38 | 8260 | 316 |  |  |  |  |
| CNC(=O)c1ccc(Oc2ccc(C(C)(C)NC(=O)OC3CN4CCC3CC4)cc2)cc1 (centres unmarked) [Example 291, Quinuclidin-3-yl 2-(4-(4-(methylcarbamoyl)phenoxy)phenyl)propan-2-ylcarbamate] | 1910 |  |  |  |  | 2310 | 90.2 | ≥ 10000 | 3160 |
| CC1(NC(=O)C2(F)CCN(c3ncc(OCc4ccc(F)cc4)cn3)CC2)CCN2CCC1CC2 (centres unmarked) [Example 132, 4-Fluoro-1-(5-((4-fluorobenzyl)oxy)pyrimidin-2-yl)-N-(4-methyl-1-azabicyclo[3.2.2]nonan-4-yl)piperidine-4-carboxamide] | 10.7 | 115 | 2.65 | 4590 | 1000 |  |  |  |  |
| CC(C)(NC(=O)OC1CCN2CCC1CC2)c1ccc(Oc2ccc(C(=O)N3CCC(F)(F)CC3)cc2)cc1 (centres unmarked) [Example 301, 1-Azabicyclo[3.2.2]nonan-4-yl 2-(4-(4-(4,4-difluoropiperidine-1-carbonyl)phenoxy)phenyl)propan-2-ylcarbamate] | 17.2 | 49.4 | 3.39 | ≥ 10000 | 1000 |  |  |  |  |
| COCCOc1ccc(-c2ccc(C(C)(C)NC(=O)N[C@]3(C)CN4CCC3CC4)cc2)cc1 [Example 158, (S)-1-(2-(4′-(2-Methoxyethoxy)-[1,1′-biphenyl]-4-yl)propan-2-yl)-3-(3-methylquinuclidin-3-yl)urea] | 2.85 | 7.62 | 0.529 | 631 | 631 |  |  |  |  |
| CCCC1(NC(=O)NC(C)(C)C#Cc2ccc(COCc3cccnc3)cc2)CN2CCC1CC2 (centres unmarked) [Example 333, 1-(2-Methyl-4-(4-((pyridin-3-ylmethoxy)methyl)phenyl)but-3-yn-2-yl)-3-(3-propylquinuclidin-3-yl)urea] | 16.1 | 413 | 6.18 | ≥ 10000 | 3160 |  |  |  |  |
| COCc1ccc(-c2ccnc(N3CCC(C)(C(=O)NC4(C)CCN5CCC4CC5)CC3)n2)cc1 (centres unmarked) [Example 96, 1-(4-(4-(Methoxymethyl)phenyl)pyrimidin-2-yl)-4-methyl-N-(4-methyl-1-azabicyclo[3.2.2]nonan-4-yl)piperidine-4-carboxamide] | 7 | 145 | 0.804 | 3390 | 1000 |  |  |  |  |
| CCCC1(NC(=O)NC(C)(C)c2ccc(-c3ccc(CCO)cc3)cc2)CN2CCC1CC2 (centres unmarked) [Example 224, 1-(2-(4′-(2-Hydroxyethyl)-[1,1′-biphenyl]-4-yl)propan-2-yl)-3-(3-propylquinuclidin-3-yl)urea] | 20.2 | 64.3 | 1.6 | ≥ 10000 | ≥ 10000 |  |  |  |  |
| CN(C)C(=O)c1ccc(-c2ccc(C(C)(C)NC(=O)OC3CN4CCC3CC4)cc2)cc1 (centres unmarked) [Example 257, Quinuclidin-3-yl 2-(4′-(dimethylcarbamoyl)biphenyl-4-yl)propan-2-ylcarbamate] | 365 |  |  |  |  | 786 | 77.2 | ≥ 10000 | ≥ 10000 |
| CC(C)(NC(=O)NC1(C)CCN2CCC1CC2)c1ccc(-c2ccc(OCCn3cccn3)cc2)cc1 (centres unmarked) [Example 181, 1-(2-(4′-(2-(1H-Pyrazol-1-yl)ethoxy)-[1,1′-biphenyl]-4-yl)propan-2-yl)-3-(4-methyl-1-azabicyclo[3.2.2]nonan-4-yl)urea] | 2.33 | 5.15 | 0.587 | 1000 | 1000 |  |  |  |  |
| O=C(OC1CCN2CCC1CC2)N1CCN(c2cccc(-c3ccccc3)c2)CC1 (centres unmarked) [Example 19, 1-Azabicyclo[3.2.2]nonan-4-yl 4-([1,1′-biphenyl]-3-yl)piperazine-1-carboxylate] | 2670 | 1480 | 456 | 7090 | 9090 |  |  |  |  |
| COCCOCc1ccc(-c2cccc(N3CCC(C(=O)NC4(C)CCN5CCC4CC5)CC3)c2)cc1 (centres unmarked) [Example 69, 1-(4′-((2-Methoxyethoxy)methyl)-[1,1′-biphenyl]-3-yl)-N-(4-methyl-1-azabicyclo[3.2.2]nonan-4-yl)piperidine-4-carboxamide] | 36.2 | 303 | 4.64 | 4640 | 1000 |  |  |  |  |
| COCCOc1ccc(-c2ccc(C3(NC(=O)NC4(C)CCN5CCC4CC5)CC3)cc2)cc1 (centres unmarked) [Example 165, 1-(1-(4′-(2-Methoxyethoxy)-[1,1′-biphenyl]-4-yl)cyclopropyl)-3-(4-methyl-1-azabicyclo[3.2.2]nonan-4-yl)urea] | 4.15 | 0.516 | 0.24 | 316 | 31.6 |  |  |  |  |
| CC1(NC(=O)C2(O)CCN(c3nccc(-c4ccc(F)cc4)n3)CC2)CCN2CCC1CC2 (centres unmarked) [Example 99, 1-(4-(4-Fluorophenyl)pyrimidin-2-yl)-4-hydroxy-N-(4-methyl-1-azabicyclo[3.2.2]nonan-4-yl)piperidine-4-carboxamide] | 2.23 | 12 | 0.0552 | 3780 | 46.4 |  |  |  |  |
| COCCCOc1ccc(-c2nc(C(C)(C)NC(=O)OC3CN4CCC3CC4)cs2)cc1 (centres unmarked) [Example 340, Quinuclidin-3-yl (2-(2-(4-(3-methoxypropoxy)phenyl)thiazol-4-yl)-propan-2-yl)carbamate] | 170 |  |  |  |  | 197 | 42.6 | ≥ 10000 | ≥ 10000 |
| CCC1(NC(=O)NC(C)(C)c2ccc(-c3ccc(S(=O)(=O)CCC(C)(C)C)cc3)cc2)CN2CCC1CC2 (centres unmarked) [Example 247, 1-(2-(4′-((3,3-Dimethylbutyl)sulfonyl)-[1,1′-biphenyl]-4-yl)propan-2-yl)-3-(3-ethylquinuclidin-3-yl)urea] | 1.66 | 4.28 | 0.396 | 6640 | 1000 |  |  |  |  |
| COCCOCc1ccc(-c2nc(N3CCC(C(=O)NC4(C)CN5CCC4CC5)CC3)ncc2F)cc1 (centres unmarked) [Example 59, 1-(5-Fluoro-4-(4-((2-methoxyethoxy)methyl)phenyl)pyrimidin-2-yl)-N-(3-methylquinuclidin-3-yl)piperidine-4-carboxamide] | 9.18 | 152 | 0.339 | ≥ 10000 | 464 |  |  |  |  |
